Test results: US11613522B2, “Herbicidally active 3-phenylisoxazoline-5-carboxamides of tetrahydro- and dihydrofurancarboxamides” (BAYER AKTIENGESELLSCHAFT, priority 2017, dated 2023)

Experiments:
Assay type in all cases: in vivo
Veronica persica [1] = test: Post-emergence herbicidal activity against VERPE; settings: dosage 320 g/ha, rated visually after about 3 weeks; for pest or weed control at 320 g/ha: Veronica persica, 504 h
Procedure: (§1) [table] Seeds of monocotyledonous and dicotyledonous weeds and crop plants are placed in sandy loam in plastic or wood-fiber pots, covered with soil and cultivated in a greenhouse under controlled growth conditions. 2 to 3 weeks after sowing, the test plants are treated at the one-leaf stage. The compounds of the invention, formulated in the form of wettable powders (WP) or as emulsion concentrates (EC), are then sprayed onto the green parts of the plants as aqueous suspension or emulsion with addition of 0.5% additive at a water application rate of 600 l/ha (converted). After the test plants had been kept in the greenhouse under optimum growth conditions for about 3 weeks, the activity of the preparations is rated visually in comparison to untreated controls. For example, 100% activity=the plants have died, 0% activity=like control plants.

Alopecurus myosuroides [2] = test: Post-emergence herbicidal activity against ALOMY; settings: dosage 320 g/ha, rated visually after about 3 weeks; for pest or weed control at 320 g/ha: Alopecurus myosuroides, 504 h
Procedure: as §1

Amaranthus retroflexus [3] = test: Post-emergence herbicidal activity against AMARE; settings: dosage 320 g/ha, rated visually after about 3 weeks; for pest or weed control at 320 g/ha: Amaranthus retroflexus, 504 h
Procedure: as §1

Stellaria media [4] = test: Post-emergence herbicidal activity against STEME; settings: dosage 320 g/ha, rated visually after about 3 weeks; for pest or weed control at 320 g/ha: Stellaria media, 504 h
Procedure: as §1

Pharbitis purpurea = test: Post-emergence herbicidal activity against PHBPU; settings: dosage 320 g/ha, rated visually after about 3 weeks; for pest or weed control at 320 g/ha: Ipomoea purpurea, 504 h
Procedure: as §1

Setaria viridis [5] = test: Post-emergence herbicidal activity against SETVI; settings: dosage 320 g/ha, rated visually after about 3 weeks; for pest or weed control at 320 g/ha: Setaria viridis, 504 h
Procedure: as §1

Avena fatua [6] = test: Post-emergence herbicidal activity against AVEFA; settings: dosage 320 g/ha, rated visually after about 3 weeks; for pest or weed control at 320 g/ha: Avena fatua, 504 h
Procedure: as §1

Polygonum convolvulus [7] = test: Post-emergence herbicidal activity against POLCO; settings: dosage 320 g/ha, rated visually after about 3 weeks; for pest or weed control at 320 g/ha: Fallopia convolvulus, 504 h
Procedure: as §1

Stellaria media [8] = test: Pre-emergence herbicidal activity against STEME; settings: dosage 80 g/ha, scored visually after about 3 weeks vs untreated controls
Excerpt: (§2) 1. Pre-emergence herbicidal action against harmful plants and crop plant compatibility Seeds of monocotyledonous and dicotyledonous weed plants and crop plants are placed in plastic or wood fiber pots and covered with soil. The compounds of the invention, formulated in the form of wettable powders (WP) or as emulsion concentrates (EC), are then applied onto the surface of the covering soil as aqueous suspension or emulsion with addition of 0.5% additive at a water application rate of 600 l/ha (converted). After the treatment, the pots are placed in a greenhouse and kept under good growth conditions for the trial plants. After about 3 weeks, the effect of the preparations is scored visually in comparison with untreated controls as percentages. For example, 100% activity=the plants have died, 0% activity=like control plants. [table]

Echinochloa crus-galli = test: Post-emergence herbicidal activity against ECHCG; settings: dosage 320 g/ha, rated visually after about 3 weeks
Procedure: as §1

Polygonum convolvulus [9] = test: Pre-emergence herbicidal activity against POLCO; settings: dosage 80 g/ha, scored visually after about 3 weeks vs untreated controls
Excerpt: as §2

Viola tricolor [10] = test: Post-emergence herbicidal activity against VIOTR; settings: dosage 320 g/ha, rated visually after about 3 weeks
Procedure: as §1

Lolium rigidum [11] = test: Post-emergence herbicidal activity against LOLRI; settings: dosage 320 g/ha, rated visually after about 3 weeks
Procedure: as §1

Hordeum murinum [12] = test: Post-emergence herbicidal activity against HORMU; settings: dosage 320 g/ha, rated visually after about 3 weeks
Procedure: as §1

Abutilon theophrasti = test: Post-emergence herbicidal activity against ABUTH; settings: dosage 320 g/ha, rated visually after about 3 weeks
Procedure: as §1

Avena fatua [13] = test: Pre-emergence herbicidal activity against AVEFA; settings: dosage 80 g/ha, scored visually after about 3 weeks vs untreated controls
Excerpt: as §2

Viola tricolor [14] = test: Pre-emergence herbicidal activity against VIOTR; settings: dosage 80 g/ha, scored visually after about 3 weeks vs untreated controls
Excerpt: as §2

Lolium rigidum [15] = test: Pre-emergence herbicidal activity against LOLRI; settings: dosage 80 g/ha, scored visually after about 3 weeks vs untreated controls
Excerpt: as §2

Amaranthus retroflexus [16] = test: Pre-emergence herbicidal activity against AMARE; settings: dosage 80 g/ha, scored visually after about 3 weeks vs untreated controls
Excerpt: as §2

Veronica persica [17] = test: Pre-emergence herbicidal activity against VERPE; settings: dosage 80 g/ha
Excerpt: as §2

Alopecurus myosuroides [18] = test: Pre-emergence herbicidal activity against ALOMY; settings: dosage 80 g/ha, scored visually after about 3 weeks vs untreated controls
Excerpt: as §2

Hordeum murinum [19] = test: Pre-emergence herbicidal activity against HORMU; settings: dosage 80 g/ha
Excerpt: as §2

Setaria viridis [20] = test: Pre-emergence herbicidal activity against SETVI; settings: dosage 80 g/ha, scored visually after about 3 weeks vs untreated controls
Excerpt: as §2

C=CC1(C(=O)N[C@@H]2CO[C@H](C(=O)N3CCCC3)C2)CC(c2cc(F)cc(F)c2)=NO1 (relative stereo) [Example I-06, 3-(3,5-difluorophenyl)-N-[cis-5-(pyrrolidin-1-carbonyl)tetrahydrofuran-3-yl]-5-vinyl-4H-isoxazole-5-carboxamide]
pest or weed control at 320 g/ha (Veronica persica [1]): 80% | pest or weed control at 320 g/ha (Alopecurus myosuroides [2]): 90% | pest or weed control at 320 g/ha (Amaranthus retroflexus [3]): 80% | pest or weed control at 320 g/ha (Stellaria media [4]): 80% | pest or weed control at 320 g/ha (Pharbitis purpurea): 80% | pest or weed control at 320 g/ha (Setaria viridis [5]): 80% | pest or weed control at 320 g/ha (Avena fatua [6]): 90% | pest or weed control at 320 g/ha (Polygonum convolvulus [7]): 80%

CC1(C(=O)N[C@@H]2CO[C@H](C(=O)N3CCCC3)C2)CC(c2cc(F)cc(F)c2)=NO1 (relative stereo) [Example I-03, 3-(3,5-difluorophenyl)-5-methyl-N-[cis-5-(pyrrolidine-1-carbonyl)tetrahydrofuran-3-yl]-4H-isoxazole-5-carboxamide]
pest or weed control at 320 g/ha (Veronica persica [1]): 90% | pest or weed control at 320 g/ha (Alopecurus myosuroides [2]): 80% | pest or weed control at 320 g/ha (Amaranthus retroflexus [3]): 80% | pest or weed control at 80 g/ha (Stellaria media [8]; Stellaria media, 504 h): 80% | pest or weed control at 320 g/ha (Stellaria media [4]): 90% | pest or weed control at 320 g/ha (Echinochloa crus-galli; Echinochloa crus-galli, 504 h): 80% | pest or weed control at 320 g/ha (Pharbitis purpurea): 80% | pest or weed control at 80 g/ha (Polygonum convolvulus [9]; Fallopia convolvulus, 504 h): 80% | pest or weed control at 320 g/ha (Setaria viridis [5]): 90% | pest or weed control at 320 g/ha (Avena fatua [6]): 90% | pest or weed control at 320 g/ha (Viola tricolor [10]; Viola tricolor, 504 h): 80% | pest or weed control at 320 g/ha (Polygonum convolvulus [7]): 80%

CCCS(=O)(=O)NC(=O)[C@@H]1C[C@H](NC(=O)[C@@]2(C)CC(c3cc(F)cc(F)c3)=NO2)CO1 [Example I-28]
Post-emergence herbicidal activity in % against VERPE (Veronica persica [1]): 90% | Post-emergence herbicidal activity in % against ALOMY (Alopecurus myosuroides [2]): 90% | Post-emergence herbicidal activity in % against AMARE (Amaranthus retroflexus [3]): 80% | Post-emergence herbicidal activity in % against STEME (Stellaria media [4]): 90% | Post-emergence herbicidal activity in % against ECHCG (Echinochloa crus-galli): 90% | Post-emergence herbicidal activity in % against PHBPU (Pharbitis purpurea): 90% | Post-emergence herbicidal activity in % against LOLRI (Lolium rigidum [11]): 100% | Post-emergence herbicidal activity in % against SETVI (Setaria viridis [5]): 90% | Post-emergence herbicidal activity in % against AVEFA (Avena fatua [6]): 100% | Post-emergence herbicidal activity in % against HORMU (Hordeum murinum [12]): 90% | Post-emergence herbicidal activity in % against VIOTR (Viola tricolor [10]): 90% | Post-emergence herbicidal activity in % against POLCO (Polygonum convolvulus [7]): 80% | Post-emergence herbicidal activity in % against ABUTH (Abutilon theophrasti): 80%

C=CC1(C(=O)NC2COC(C(=O)NC(C)CC(=O)OCC)C2)CC(c2cc(F)cc(F)c2)=NO1 (centres unmarked) [Example I-22]
Pre-emergence herbicidal activity in % against AVEVA (AVEFA) (Avena fatua [13]): 100% | Post-emergence herbicidal activity in % against VERPE (Veronica persica [1]): 80% | Post-emergence herbicidal activity in % against ALOMY (Alopecurus myosuroides [2]): 100% | Pre-emergence herbicidal activity in % against VIOTR (Viola tricolor [14]): 100% | Pre-emergence herbicidal activity in % against LOLRI (Lolium rigidum [15]): 100% | Pre-emergence herbicidal activity in % against AMARE (Amaranthus retroflexus [16]): 100% | Pre-emergence herbicidal activity in % against VERPE (Veronica persica [17]): 100% | Post-emergence herbicidal activity in % against AMARE (Amaranthus retroflexus [3]): 90% | Pre-emergence herbicidal activity in % against STEME (Stellaria media [8]): 90% | Post-emergence herbicidal activity in % against STEME (Stellaria media [4]): 80% | Post-emergence herbicidal activity in % against ECHCG (Echinochloa crus-galli): 100% | Post-emergence herbicidal activity in % against PHBPU (Pharbitis purpurea): 90% | Post-emergence herbicidal activity in % against LOLRI (Lolium rigidum [11]): 100% | Pre-emergence herbicidal activity in % against ALOMY (Alopecurus myosuroides [18]): 100% | Pre-emergence herbicidal activity in % against POLCO (Polygonum convolvulus [9]): 100% | Post-emergence herbicidal activity in % against SETVI (Setaria viridis [5]): 90% | Pre-emergence herbicidal activity in % against HORMU (Hordeum murinum [19]): 100% | Post-emergence herbicidal activity in % against AVEFA (Avena fatua [6]): 100% | Pre-emergence herbicidal activity in % against SETVI (Setaria viridis [20]): 100% | Post-emergence herbicidal activity in % against HORMU (Hordeum murinum [12]): 100% | Post-emergence herbicidal activity in % against VIOTR (Viola tricolor [10]): 80% | Post-emergence herbicidal activity in % against POLCO (Polygonum convolvulus [7]): 80% | Post-emergence herbicidal activity in % against ABUTH (Abutilon theophrasti): 80%
